Assay results reported in ChEMBL document CHEMBL1201862, “PubChem BioAssay data set” (2004).
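Interpolation was linear, between the two tested concentrations surrounding the appropriate level; five concentrations were tested over 48 hours in 96-well plates. Abbreviation: GI50, concentration required for 50% inhibition of growth.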 Activity calls are given as the source filed them. Cut-off read from the data, not from the text of the source: active = GI50 up to about 1.1 µM and inactive = higher.

Tests used:
Test in all cases: inhibition of tumour cell growth, NCI panel, 48 h
[1] = tested on: UO-31
[2] = tested on: HL-60
[3] = tested on: NCI/ADR-RES
[4] = tested on: NCI-H460
[5] = tested on: BT-549
[6] = tested on: SK-MEL-5
[7] = tested on: SK-MEL-2
[8] = tested on: HCT-116
[9] = tested on: SK-MEL-28
[10] = tested on: SF-295
[11] = tested on: Hs-578T
[12] = tested on: MDA-MB-435
[13] = tested on: HCC 2998
[14] = tested on: A549
[15] = tested on: CCRF-CEM
[16] = tested on: SF-539
[17] = tested on: T47D
[18] = tested on: HOP-92
[19] = tested on: CAKI-1
[20] = tested on: DU-145
[21] = tested on: SW-620
[22] = tested on: Malme-3M
[23] = tested on: RPMI-8226
[24] = tested on: SK-OV-3
[25] = tested on: A498
[26] = tested on: LOX IMVI
[27] = tested on: U-251
[28] = tested on: MCF7
[29] = tested on: PC-3
[30] = tested on: SF-268
[31] = tested on: KM12
[32] = tested on: SNB-75
[33] = tested on: ACHN
[34] = tested on: 786-0
[35] = tested on: K562
[36] = tested on: NCI-H226
[37] = tested on: EKVX
[38] = tested on: NCI-H23
[39] = tested on: UACC-257
[40] = tested on: OVCAR-4
[41] = tested on: HT-29
[42] = tested on: MOLT-4
[43] = tested on: SNB-19
[44] = tested on: TK-10
[45] = tested on: SN12C
[46] = tested on: RXF 393
[47] = tested on: OVCAR-8
[48] = tested on: MDA-MB-231
[49] = tested on: UACC-62
[50] = tested on: COLO 205
[51] = tested on: HCT-15
[52] = tested on: MDA-N

## O=C(OCC1CCCN2CCCCC12)c1cccnc1 (configuration not stated)
[1]
  GI50: > 100 µM (inactive)
[2]
  GI50: > 100 µM (inactive)
[3]
  GI50: > 100 µM (inactive)
[4]
  GI50: > 100 µM (inactive)
[5]
  GI50: > 100 µM (inactive)
[6]
  GI50: > 100 µM (inactive)
[7]
  GI50: > 100 µM (inactive)
[8]
  GI50: > 100 µM (inactive)
[9]
  GI50: > 100 µM (inactive)
[10]
  GI50: > 100 µM (inactive)
[11]
  GI50: > 100 µM (inactive)
[12]
  GI50: > 100 µM (inactive)
[13]
  GI50: > 100 µM (inactive)
[14]
  GI50: > 100 µM (inactive)
[15]
  GI50: > 100 µM (inactive)
[16]
  GI50: > 100 µM (inactive)
[17]
  GI50: > 100 µM (inactive)
[18]
  GI50: > 100 µM (inactive)
[19]
  GI50: > 100 µM (inactive)
[20]
  GI50: > 100 µM (inactive)
[21]
  GI50: > 100 µM (inactive)
[22]
  GI50: > 100 µM (inactive)
[23]
  GI50: > 100 µM (inactive)
[24]
  GI50: > 100 µM (inactive)
[25]
  GI50: > 100 µM (inactive)
[26]
  GI50: > 100 µM (inactive)
[27]
  GI50: > 100 µM (inactive)
[28]
  GI50: > 100 µM (inactive)
[29]
  GI50: > 100 µM (inactive)
[30]
  GI50: > 100 µM (inactive)
[31]
  GI50: > 100 µM (inactive)
[32]
  GI50: > 100 µM (inactive)
[33]
  GI50: > 100 µM (inactive)
[34]
  GI50: > 100 µM (inactive)
[35]
  GI50: > 100 µM (inactive)
[36]
  GI50: > 100 µM (inactive)
[37]
  GI50: > 100 µM (inactive)
[38]
  GI50: > 100 µM (inactive)
[39]
  GI50: > 100 µM (inactive)
[40]
  GI50: > 100 µM (inactive)
[41]
  GI50: > 100 µM (inactive)
[42]
  GI50: > 100 µM (inactive)
[43]
  GI50: > 100 µM (inactive)
[44]
  GI50: > 100 µM (inactive)
[45]
  GI50: > 100 µM (inactive)
[46]
  GI50: > 100 µM (inactive)
[47]
  GI50: > 100 µM (inactive)
[48]
  GI50: > 100 µM (inactive)
[49]
  GI50: > 100 µM (inactive)
[50]
  GI50: > 100 µM (inactive)
[51]
  GI50: > 100 µM
[52]
  GI50: > 100 µM (inactive)
